This is an account of results in patent US8435976B2, “4-substituted pyridin-3-yl-carboxamide compounds and methods of use” (F. Hoffmann-La Roche, priority 2009, dated 2013).

Structures are written as SMILES.

In general, IC50 refers to the concentration needed to halve the response being measured.

The test system of one assay is EOL-1. The experiment in a line: EOL-1 cell assay. Format: cell-based. To be noted: Homo sapiens, EOL1; Table 3.
Assay [1] deals with multiple myeloma cell line MM.1S. Put plainly: MM.1S 3 day proliferation assay, single agents and combinations (Cell-Titer Glo). To be noted: FIG. 1. It counts as cell-based. The protocol:
The in vitro potency of the combinations of formula I compounds with chemotherapeutic agents was measured by the cell proliferation assay of Example 11 and the results are compiled in Example iii. The CellTiter-Glo® Luminescent Cell Viability Assay (commercially available from Promega Corp., Madison, Wis.) is a homogeneous assay method based on the recombinant expression of Coleoptera luciferase (U.S. Pat. No. 5,583,024; U.S. Pat. No. 5,674,713; U.S. Pat. No. 5,700,670) and determines the number of viable cells in culture based on quantitation of the ATP present, an indicator of metabolically active cells (Crouch et al (1993) J. Immunol. Meth. 160:81-88; U.S. Pat. No. 6,602,677). The CellTiter-Glo® Assay was conducted in 96 or 384 well format, making it amenable to automated high-throughput screening (HTS) (Cree et al (1995) AntiCancer Drugs 6:398-404). The homogeneous assay procedure involves adding the single reagent (CellTiter-Glo® Reagent) directly to cells cultured in serum-supplemented medium. Cell washing, removal of medium and multiple pipetting steps are not required. The system detects as few as 15 cells/well in a 384-well format in 10 minutes after adding reagent and mixing.
The homogeneous “add-mix-measure” format results in cell lysis and generation of a luminescent signal proportional to the amount of ATP present. […] Viable cells are reflected in relative luminescence units (RLU). […] Data can be recorded by luminometer or CCD camera imaging device. The luminescence output is presented as relative light units (RLU), measured over time.
The combination index (CI) score is calculated by the Chou and Talalay method (Chou, T. and Talalay, P. (1984) Adv. Enzyme Regul. 22:27-55). […] The strength of synergy is assessed according to Chou and Talalay. […]
The in vitro cell survival and proliferation assay (Cell-Titer Glo, Promega) measured viable cells over varying inhibitor concentrations (10^−3 to 10 μMolar, Relative Units, wherein a Relative Unit equals 0.3 micromolar for Compound 3, 0.3 micromolar for Formula A, and 0.1 micromolar for Formula B). […]

The subject of assay [2] is bone marrow aspirate samples from multiple myeloma patients. Put plainly: Primary cancer cell isolates from bone marrow aspirates, apoptosis. Particulars: 0.3 or 1.0 micromolar; two of four cases. It counts as cell-based, human. As for the experimental part: Shown in FIG. 2 are a summary of Combination Index values for Compound 3 in combination with different agents. The values shown were calculated at the ED50 of the dose response curves which were similar in nature to those exemplified in FIG. 1. Each dot in the plot represents the test results obtained with a different multiple myeloma cell line with a different combination of test agents, including Compound 3 plus a second agent as labeled on the abscissa. The horizontal line on the plot itself indicates the mean of all CI values for a given test agent. Combinations of Compound 3 with clinical standard of care chemotherapeutic agents including dexamethasone, lenalidomide, bortezomib, and melphalan produced variable results wherein CI values between about 0.1 and about 1 were obtained, with means generally greater than about 0.5. Compared to these clinically active agents, unexpectedly uniform and unexpectedly potent combination test results were obtained for Compound 3 in combination with Formula A, in which the majority of calculated CI values were less than about 0.2 and the mean across all cancer cell lines tested was about 0.2. In addition to these findings, bone marrow aspirate samples from multiple myeloma patients […] to test Formula A and Compound 3 singly and in combination on these primary cancer cell isolates.

The test system of assay [3] is multiple myeloma cell line KMS11. The experiment in a line: Cell Titer Glo proliferation and survival assay, KMS11 and other multiple myeloma cell lines. It counts as cell-based. Particulars: Homo sapiens, KMS-11; single agent; ten multiple myeloma cell lines tested; read-out: IC50 against myeloma cell lines, single agent. An excerpt: The results obtained here are representative of a total of ten multiple myeloma cell lines tested.
A general note: Cellular ATP, detected with luciferase, serves as a proxy for viable cell number.

Assay [4] relates to prostate cancer cell line PC3. The experiment in a line: Cell Titer Glo proliferation and survival assay, PC3. To be noted: PC3, FIG. 5. It counts as cell-based. An excerpt:
The results obtained here are representative of a subset of prostate cell lines tested.

Assay [5] concerns RPMI 8226.x1 multiple myeloma xenografts. The experiment in a line: RPMI 8226.x1 multiple myeloma xenograft. It counts as in vivo, SCID Beige mice. As for the experimental part:
(§1) The efficacy of the combinations of the invention may be measured in vivo by implanting allografts or xenografts of cancer cells in rodents and treating the tumor-bearing animals with the combinations. Variable results are to be expected depending on the cell line, the presence or absence of certain mutations in the tumor cells, the sequence of administration of a formula I compound and chemotherapeutic agent, dosing regimen, and other factors. Subject mice were treated with drug(s) or control (Vehicle) and monitored over several weeks or more to measure the time to tumor doubling, log cell kill, and tumor inhibition.
Dosing of all cohorts commenced on Day 0 when the mean tumor volume of all cohorts was between about 100 to 200 cubic millimeters.

For assay [6], the system named is MM1.s multiple myeloma xenografts. Put plainly: MM1.s multiple myeloma xenograft. Particulars: Compound 3 50 mg/kg po qd, day 18 vs vehicle. It counts as in vivo, SCID mice. The protocol:
as §1
Dosing of all cohorts commenced on Day 0 when the mean tumor volume of all cohorts was between about 200 to 300 cubic millimeters. […] Formula A was tested at as a single agent at a single dose level of 75 mg/kg for which a lesser TGI was obtained at day 18.

As to `Nc1sc(-c2c(F)cccc2F)nc1C(=O)Nc1cnccc1N1CCC[C@H](N)C1` [Example 3, (S)-5-amino-N-(4-(3-aminopiperidin-1-yl)pyridin-3-yl)-2-(2,6-difluorophenyl)thiazole-4-carboxamide], the IC50 with EOL-1 is 10 nM; in assay [3], 100 to 500 nM. In addition, in assay [1], the “lowest level reached by dose-response curve, of control value” was “does not fully reach 0% of the control value”. Further, in assay [2], the “activity on primary cancer cell isolates” value was “only limited single agent activity”. In addition, the “single agent activity, PC3” value in assay [4] was “little activity”. Besides, the “effect on tumor growth at the lowest dose” value in assay [5] (Compound 3 5 mg/kg po qd x21) is recorded as “trend toward accelerated tumor growth, though this trend was not statistically significant”. Also, the “tumor growth inhibition (TGI)” value in assay [5] (Compound 3 50 mg/kg po qd x21, day 27 vs vehicle) is listed as “about 70%”; in assay [6], “about 60%”.
